The text below walks through data of patent US6875761B2 (Eisai Co., Ltd., priority 1997, dated 2005).

One test deals with T1, serotonin 2 receptor (Rattus norvegicus, UniProt P14842).
T1 construct: To the receptor fraction of the cerebral cortex were added a test compound and 0.3 nM of [^3H] ketanserin; from tissue; host or cells: rat cerebral cortex membrane fraction
In words: Binding test on [3H] ketanserin, cerebral cortex receptor fraction. More on the design: species or system SD rats. The conditions noted are these: 0.3 nM [3H] ketanserin, 37° C. 15 min, read-out: 5HT2.

In the next test the target is T2, serotonin 1A receptor (Rattus norvegicus, UniProt P19327).
T2 construct: To the receptor fraction of the hippocampus were added a test compound and 0.5 nM of [^3H]; 8-hydroxy-dipropylaminotetralin; from tissue; host or cells: rat hippocampus membrane fraction
T2 sequence (P19327 1-422): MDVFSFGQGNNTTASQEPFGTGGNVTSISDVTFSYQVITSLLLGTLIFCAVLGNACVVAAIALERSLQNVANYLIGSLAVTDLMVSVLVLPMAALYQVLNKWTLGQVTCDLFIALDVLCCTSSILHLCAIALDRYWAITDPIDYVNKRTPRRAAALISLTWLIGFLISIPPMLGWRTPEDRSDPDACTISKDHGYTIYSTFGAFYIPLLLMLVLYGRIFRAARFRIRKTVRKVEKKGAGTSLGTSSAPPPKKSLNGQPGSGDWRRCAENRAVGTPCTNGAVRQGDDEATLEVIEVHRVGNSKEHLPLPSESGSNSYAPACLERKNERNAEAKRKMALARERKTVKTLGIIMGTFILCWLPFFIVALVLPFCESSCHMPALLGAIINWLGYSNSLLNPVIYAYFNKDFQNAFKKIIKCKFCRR
In words: Binding test on [3H] 8-hydroxy-dipropylaminotetralin, hippocampus receptor fraction. More on the design: species or system SD rats.

[1] abbreviates: rat hippocampus receptor fraction, 0.5 nM [3H] 8-OH-DPAT, room temperature 30 min, read-out: 5HT1.

Counter-ions that a name gives are not always drawn. Like-named read-outs stand apart in the source and are kept apart here.

T1 sequence (P14842 whole entry): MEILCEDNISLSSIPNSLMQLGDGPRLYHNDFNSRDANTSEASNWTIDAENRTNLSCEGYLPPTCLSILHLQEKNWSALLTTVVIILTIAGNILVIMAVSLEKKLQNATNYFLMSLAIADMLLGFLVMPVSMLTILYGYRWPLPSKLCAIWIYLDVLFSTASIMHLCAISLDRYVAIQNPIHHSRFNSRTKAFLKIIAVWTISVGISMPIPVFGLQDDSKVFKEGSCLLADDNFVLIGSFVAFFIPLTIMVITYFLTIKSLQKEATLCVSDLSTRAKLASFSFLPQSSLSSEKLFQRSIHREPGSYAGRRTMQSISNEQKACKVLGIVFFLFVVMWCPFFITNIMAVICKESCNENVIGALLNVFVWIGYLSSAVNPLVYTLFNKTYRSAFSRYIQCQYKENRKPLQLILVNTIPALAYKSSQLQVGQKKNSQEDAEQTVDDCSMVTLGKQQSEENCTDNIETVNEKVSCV

Take `CCN1CCN(c2nc(-c3ccc(OCCO)c(C(C)C)c3)cc3ccccc23)CC1` [Example 41, 3-[3-isopropyl-4-(2-hydroxyethoxy)phenyl]-1-(4-ethylpiperazin-1-yl)isoquinoline hydrochloride]: the Ki on serotonin 2 receptor was 45.6 nM; at serotonin 1A receptor (setting [1]), 40.1 nM.
With `CCN1CCN(c2nc(-c3ccc(OCCOC)c(OCCOC)c3)cc3ccccc23)CC1` [Example 43, 3-[3,4-Di(2-Methoxyethoxy)Phenyl]-1-(4-Ethylpiperazin-1-Yl)Isoquinoline Hydrochloride], the Ki is 66.6 nM at serotonin 2 receptor and 29.3 nM on serotonin 1A receptor (setting [1]).
On to `CCN1CCN(c2nc(-c3ccc(COCCO)cc3)cc3ccccc23)CC1` [Example 44, 3-[4-(2-Hydroxyethoxylmethylphenyl]-1-(4-ethylpiperazin-1-Yl)Isoquinoline Hydrochloride], for which the values for the Ki at serotonin 2 receptor and at serotonin 1A receptor (setting [1]) were 9 nM and 55.4 nM, respectively.
Consider `CCN1CCN(c2nc(-c3ccc4c(c3)OCO4)cc3ccccc23)CC1` [Example 46, 3-(3,4-Methylenedioxyphenyl)-1-(4-Ethylpiperazin-1-Yl)Isoquinoline Hydrochloride], for which the Ki was 12.7 nM at serotonin 2 receptor and 58 nM on serotonin 1A receptor (setting [1]).
With `CCN1CCN(c2nc(-c3ccc(OCC(C)=O)cc3)cc3ccccc23)CC1` [Example 47, 1-(1-Ethylpiperazin-4-Yl)-3-(4-Acetonyloxyphenyl)Isoquinoline], the Ki turned out to be 2.6 nM at serotonin 2 receptor and 25.3 nM on serotonin 1A receptor (setting [1]).
`CCN1CCN(c2nc(-c3ccc(OCCCNC(C)=O)cc3)cc3ccccc23)CC1` [Example 50, 3-[4-(3-Acetamidepropoxy)Phenyl]-1-(4-Ethylpiperazin-1-Yl)Isoquinoline Hydrochloride]: the Ki at serotonin 2 receptor came out at 21.9 nM; at serotonin 1A receptor (setting [1]), 25.2 nM.
`CCN1CCN(c2nc(-c3ccc(OCC#N)cc3)cc3ccccc23)CC1` [Example 51, 3-(4-Cyanomethoxyphenyl)-1-(4-Ethylpiperazin-1-Yl)Isoquinoline Hydrochloride]: the figures for the Ki on serotonin 2 receptor and on serotonin 1A receptor (setting [1]) were 1.87 nM and 103 nM, respectively.
On the same counts, the results for `CCN1CCN(c2nc(-c3ccc(OCCCC#N)cc3)cc3ccccc23)CC1` [Example 53, 3-[4-(3-Cyanopropoxy)Phenyl]-1-(4-Ethylpiperazin-1-Yl)Isoquinoline Hydrochloride] are 1.78 nM and 61.2 nM.
In the case of `CCN1CCN(c2nc(-c3ccc(OCCCSC)cc3)cc3ccccc23)CC1` [Example 54, 3-[4-(3-Methylthiopropoxy)Phenyl]-1-(4-Ethylpiperazin-1-Yl)Isoquinoline Hydrochloride], the Ki on serotonin 2 receptor came out at 4.9 nM; at serotonin 1A receptor (setting [1]) it was 62.1 nM.
In the same order, the values of `CCN1CCN(c2nc(-c3ccc(OCCCS(C)(=O)=O)cc3)cc3ccccc23)CC1` [Example 55, 3-[4-(3-Methylsulfonpropoxy)Phenyl]-1-(4-Ethylpiperazin-1-Yl)Isoquinoline Hydorchloride] are 15.3 nM and 10.4 nM.
On to `CCN1CCN(c2nc(-c3ccc(OCCn4ccnc4)cc3)cc3ccccc23)CC1` [Example 56, 3-{4-[2-(1-Imidazonyl)Ethoxy]phenyl}-1-(4-Ethylpiperazin-1-Yl)Isoquinoline Hydrochloride], for which the Ki was determined as 59.5 nM on serotonin 2 receptor and 37.4 nM at serotonin 1A receptor (setting [1]).
On to `CCN1CCN(c2nc(-c3ccc(OCCCc4ccncc4)cc3)cc3ccccc23)CC1` [Example 57, 3-{4-[3-(4-Pyridyl)Propoxy]Phenyl}-1-(4-Ethylpiperazin-1-Yl)Isoquinoline Hydrochloride], for which the Ki on serotonin 2 receptor is 4.6 nM; on serotonin 1A receptor (setting [1]), 57.2 nM.
For `CCNC(=O)Oc1ccc(-c2cc3ccccc3c(N3CCN(CC)CC3)n2)cc1` [Example 59], the figures for the Ki on serotonin 2 receptor and on serotonin 1A receptor were 14.3 nM and 16.3 nM, respectively.
Regarding `CCN1CCN(c2nc(-c3ccc(C#N)cc3)cc3ccccc23)CC1` [Example 62, 3-(4-Cyanophenyl)-1-(4-Ethylpiperazin-1-Yl)Isoquinoline Hydrochloride], the Ki on serotonin 2 receptor came to 4 nM; at serotonin 1A receptor (setting [1]), 14.8 nM.
For the compound `CCN1CCN(c2nc(-c3ccc(C4=CCC(O)CC4)cc3)cc3ccccc23)CC1` (centres unmarked) [Example 64, 3-[4-(4-Hydroxy-1-Cyclohexen-1-Yl)Phenyl]-1-(4-Ethylpiperazin-1-Yl)Isoquinoline Hydrochloride], the Ki at serotonin 2 receptor came to 8.5 nM; at serotonin 1A receptor (setting [1]), 87 nM.
With `CCN1CCN(c2nc(-c3ccc(N)cc3)cc3ccccc23)CC1` [Example 65, 3-(4-Aminophenyl)-1-(4-Ethylpiperazin-1-Yl)Isoquinoline Hydrochloride], the Ki is 33.5 nM on serotonin 2 receptor and 60.1 nM on serotonin 1A receptor (setting [1]).
On the same counts, the results for `CCN1CCN(c2nc(-c3ccc(N(C)C)cc3)cc3ccccc23)CC1` [Example 66, 3-[4-(N,N-Dimethylamino)Phenyl]-1-(4-Ethylpiperazin-1-Yl)Isoquinoline Dihydrochloride] are 21.6 nM and 52.7 nM.
As to `CCN1CCN(c2nc(-c3ccc(NCCO)cc3)cc3ccccc23)CC1` [Example 67, 3-[4-(2-Hydroxyethyl)Aminophenyl]-1-(4-Ethylpiperazin-1-Yl)Isoquinoline Hydrochloride], the Ki on serotonin 2 receptor stood at 6.6 nM; at serotonin 1A receptor (setting [1]), 27.3 nM.
Consider `CCN1CCN(c2nc(-c3ccc(NC(C)=O)cc3)cc3ccccc23)CC1` [Example 68, 3-(4-Acetamidephenyl)-1-(4-Ethylpiperazin-1-Yl)Isoquinoline Hydrochloride], for which the results for the Ki on serotonin 2 receptor and on serotonin 1A receptor (setting [1]) were 94.1 nM and 30.9 nM, respectively.
Turning to `CCC(=O)Nc1ccc(-c2cc3ccccc3c(N3CCN(CC)CC3)n2)cc1` [Example 69, 3-(4-Ethylcarbonylaminophenyl)-1-(4-Ethylpiperazin-1-Yl)Isoquinoline Hydrochloride], the results for the Ki on serotonin 2 receptor and at serotonin 1A receptor (setting [1]) were 17.3 nM and 17.2 nM, respectively.
On the same counts, the results for `CCN1CCN(c2nc(-c3ccc(NS(=O)(=O)CC)cc3)cc3ccccc23)CC1` [Example 71, 3-(4-Ethylsulfonylaminophenyl)-1-(4-Ethylpiperazin-1-Yl)Isoquinoline Hydrochloride] are 1.5 nM and 2 nM.
In the same order, the values of `CCCS(=O)(=O)Nc1ccc(-c2cc3ccccc3c(N3CCN(CC)CC3)n2)cc1` [Example 72, 3-(4-Propylsulfonylaminophenyl)-1-(4-Ethylpiperazin-1-Yl)Isoquinoline Hydrochloride] are 3.6 nM and 15 nM.
`CCN1CCN(c2nc(-c3ccc(S(N)(=O)=O)cc3)cc3ccccc23)CC1` [Example 74, 3-(4-Sulfonamidephenyl)-1-(4-Ethylpiperazin-1-Yl)Isoquinoline Hydrochloride]: the Ki was determined as 7.7 nM on serotonin 2 receptor and 4.6 nM on serotonin 1A receptor (setting [1]).
As to `CCN1CCN(c2nc(-c3ccc(S(=O)(=O)N4CCOCC4)cc3)cc3ccccc23)CC1` [Example 75, 3-[(4-Morpholinyl)Sulfonylphenyl]-1-(4-Ethylpiperazin-1-Yl)Isoquinoline Hydrochloride], the Ki is 10 nM at serotonin 2 receptor and 7.7 nM on serotonin 1A receptor (setting [1]).
Take `CCN1CCN(c2nc(-c3ccc(S(=O)(=O)N4CCSCC4)cc3)cc3ccccc23)CC1` [Example 76, 3-[(4-Thiomorpholinyl)Sulfonylphenyl]-1-(4-Ethylpiperazin-1-Yl)Isoquinoline Hydrochloride]: the Ki on serotonin 2 receptor turned out to be 8.9 nM; at serotonin 1A receptor (setting [1]), 5.7 nM.
In the case of `CCN1CCN(c2nc(-c3ccc(S(=O)(=O)N4CCS(=O)(=O)CC4)cc3)cc3ccccc23)CC1` [Example 77, 3-[(1,1-Dioxythiomorpholinyl)Sulfonylphenyl]-1-(4-Ethylpiperazin-1-Yl)Isoquinoline Hydrochloride], the results for the Ki at serotonin 2 receptor and on serotonin 1A receptor (setting [1]) were 90.5 nM and 13.6 nM, respectively.
As for `CCN1CCN(c2nc(-c3ccc(CNS(=O)(=O)CC)cc3)cc3ccccc23)CC1` [Example 78, 3-(4-Ethylsulfonylaminomethylphenyl)-1-(4-Ethylpiperazin-1-Yl)Isoquinoline Hydrochloride], the results for the Ki at serotonin 2 receptor and at serotonin 1A receptor (setting [1]) were 1.9 nM and 0.56 nM, respectively.
On to `CCN1CCN(c2nc(-c3ccc(CCNS(=O)(=O)CC)cc3)cc3ccccc23)CC1` [Example 79, 3-(4-Ethylsulfonylaminoethylphenyl)-1-(4-Ethylpiperazin-1-Yl)Isoquinoline Hydrochloride], for which the Ki on serotonin 2 receptor is 23 nM; on serotonin 1A receptor (setting [1]) it was 5.8 nM.
In the case of `CCNS(=O)(=O)Cc1ccc(-c2cc3ccccc3c(N3CCN(CC)CC3)n2)cc1` [Example 80, 3-(4-Ethylaminosulfonylmethylphenyl)-1-(4-Ethylpiperazin-1-Yl)Isoquinoline Hydrochloride], the Ki at serotonin 2 receptor stood at 16.3 nM; at serotonin 1A receptor (setting [1]) it was 0.8 nM.
Take `CCCNS(=O)(=O)Cc1ccc(-c2cc3ccccc3c(N3CCN(CC)CC3)n2)cc1` [Example 81, 3-(4-Propylaminosulfonylmethylphenyl)-1-(4-Ethylpiperazin-1-Yl)Isoquinoline Hydrochloride]: the Ki on serotonin 2 receptor turned out to be 15.1 nM; at serotonin 1A receptor (setting [1]), 1.1 nM.
In the case of `CCN1CCN(c2nc(-c3ccc(CS(=O)(=O)N(CC)CC)cc3)cc3ccccc23)CC1` [Example 82, 3-[4-(N,N-diethylamino)sulfonylmethylphenyl]-1-(4-ethylpiperazin-1-yl)isoquinoline Hydrochloride], the figures for the Ki on serotonin 2 receptor and on serotonin 1A receptor (setting [1]) were 10.8 nM and 0.2 nM, respectively.
